Experimental data published in patent US6903112B2, “Heterocyclylindazole and -azaindazole compounds as 5-hydroxytryptamine-6 ligands” (Wyeth, priority 2000, dated 2005).

Target: T1, human cloned 5-HT6 receptors (Homo sapiens, UniProt P50406)
T1 construct: expressed in transfected cells; host or cells: Hela cells
Assay: 5-HT6 binding affinity, [3H]-LSD displacement on Hela cell membranes
Conditions: [3H]-LSD 3.0 nM; membranes of Hela cells expressing human cloned 5-HT6 receptors; 120 min at room temperature
Procedure: The affinity of test compounds for the serotonin 5-HT6 receptor is evaluated in the following manner. Cultured Hela cells expressing human cloned 5-HT6 receptors are harvested and centrifuged at low speed (1,000×g) for 10.0 min to remove the culture media. The harvested cells are suspended in half volume of fresh physiological phosphate buffered saline solution and recentrifuged at the same speed. This operation is repeated. The collected cells are then homogenized in ten volumes of 50 mM Tris.HCl (pH 7.4) and 0.5 mM EDTA. The homogenate is centrifuged at 40,000×g for 30.0 min and the precipitate is collected. The obtained pellet is resuspended in 10 volumes of Tris.HCl buffer and recentrifuged at the same speed. The final pellet is suspended in a small volume of Tris.HCl buffer and the tissue protein content is determined in aliquots of 10-25 μl volumes. Bovine Serum Albumin is used as the standard in the protein determination according to the method described in Lowry et al., J. Biol. Chem., 193:265 (1951). The volume of the suspended cell membranes is adjusted to give a tissue protein concentration of 1.0 mg/ml of suspension. The prepared membrane suspension (10 times concentrated) is aliquoted in 1.0 ml volumes and stored at −70° C. until used in subsequent binding experiments.
Binding experiments are performed in a 96 well microtiter plate format, in a total volume of 200 μl. […] The test compounds are added in 20.0 μl volume.
The reaction is allowed to proceed in the dark for 120 min at room temperature, at which time, the bound ligand-receptor complex is filtered off on a 96 well unifilter with a Packard Filtermate® 196 Harvester. The bound complex caught on the filter disk is allowed to air dry and the radioactivity is measured in a Packard TopCount® equipped with six photomultiplier detectors, after the addition of 40.0 μl Microscint®-20 scintillant to each shallow well. The unifilter plate is heat-sealed and counted in a PackardTopCount® with a tritium efficiency of 31.0%.
Binding in the presence of varying concentrations of test compound is expressed as a percentage of specific binding in the absence of test compound. The results are plotted as log % bound versus log concentration of test compound. […] A linear regression line of data points is plotted, from which the IC50 value is determined and the Ki value is determined based upon the following equation: Ki=IC50/(1+L/KD) where L is the concentration of the radioactive ligand used and KD is the dissociation constant of the ligand for the receptor, both expressed in nM.

T1 sequence (P50406 whole entry): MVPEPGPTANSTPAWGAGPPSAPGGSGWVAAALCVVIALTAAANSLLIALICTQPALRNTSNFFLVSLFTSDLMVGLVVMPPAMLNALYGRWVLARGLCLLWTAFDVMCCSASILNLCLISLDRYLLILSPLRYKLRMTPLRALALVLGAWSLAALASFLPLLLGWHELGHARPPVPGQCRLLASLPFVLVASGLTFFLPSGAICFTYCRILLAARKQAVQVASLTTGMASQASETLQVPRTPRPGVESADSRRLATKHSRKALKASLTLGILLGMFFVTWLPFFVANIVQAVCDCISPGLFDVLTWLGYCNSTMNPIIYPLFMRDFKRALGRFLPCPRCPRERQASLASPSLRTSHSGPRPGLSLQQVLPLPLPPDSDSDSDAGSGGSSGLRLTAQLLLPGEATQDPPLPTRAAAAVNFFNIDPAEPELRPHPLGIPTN

Row | SMILES | Ki [nM]
1 | O=S(=O)(c1ccc(C(F)(F)F)cc1)n1cc(C2CCCNC2)c2ccccc21 (stereo not drawn) [Example 38, 1-(4-trifluoromethy-benzenesulfonyl)-3-piperidin-3-yl-1H-indole] | 10
2 | O=S(=O)(c1ccccc1)n1cc(C2CCCNC2)c2ccccc21 (stereo not drawn) [Example 31, 1-Benzenesulfonyl-3-piperidin-3-yl-1H-indole] | 2
3 | CN1CCC(c2cn(S(=O)(=O)c3ccc(N)cc3)c3ccccc23)C1 (stereo not drawn) [Example 9, 1-(4-aminophenylsulfonyl)-3-(1-methylpyrrolidin-3-yl)-1H-indole] | 1
4 | CN1CCC(c2cn(S(=O)(=O)c3ccc(Cl)c(Cl)c3)c3ccccc23)C1 (stereo not drawn) [Example 11, 1-(3,4-dichlorophenylsulfonyl)-3-(1-methylpyrrolidin-3-yl)-1H-indole] | 3
5 | Cc1ccc(S(=O)(=O)n2cc(C3CCCNC3)c3ccccc32)cc1Cl (stereo not drawn) [Example 39, 1-(3-chloro-4-methyl-benzenesulfonyl)-3-piperidin-3-yl-1H-indole] | 6
6 | O=S(=O)(c1cccc(Cl)c1)n1cc(C2CCCNC2)c2ccccc21 (stereo not drawn) [Example 34, 1-(3-chloro-benzenesulfonyl)-3-piperidin-3-yl-1H-indole] | 2
7 | Cc1nc(N)sc1S(=O)(=O)n1cc(C2CCN(Cc3ccccc3)C2)c2ccccc21 (stereo not drawn) [Example 23, 5-[3-(1-benzylpyrrolidin-3-yl)-indole-1-sulfonyl]-4-methyl-thiazol-2-ylamine] | 3
8 | CN1CCC(c2cn(S(=O)(=O)c3ccccc3Br)c3ccccc23)C1 (stereo not drawn) [Example 13, 1-(2-bromophenylsulfonyl)-3-(1-methylpyrrolidin-3-yl)-1H-indole] | 1
9 | Nc1ccc(S(=O)(=O)n2cc(C3CCN(Cc4ccccc4)C3)c3ccccc32)cc1 (stereo not drawn) [Example 20, 1-(4-aminophenylsulfonyl)-3-(1-benzylpyrrolidin-3-yl)-1H-indole] | 1
10 | COc1ccc(S(=O)(=O)n2cc(C3CCN(C)C3)c3ccccc32)cc1OC (stereo not drawn) [Example 10, 1-(3,4-dimethoxyphenylsulfonyl)-3-(1-methylpyrrolidin-3-yl)-1H-indole] | 5
11 | COc1ccc(S(=O)(=O)n2cc(C3CCCNC3)c3ccccc32)cc1 (stereo not drawn) [Example 37, 1-(4-methoxy-benzenesulfonyl)-3-piperidin-3-yl-1H-indole] | 10
12 | O=S(=O)(c1ccccc1Br)n1cc(C2CCN(Cc3ccccc3)C2)c2ccccc21 (stereo not drawn) [Example 22, 3-(1-benzylpyrrolidin-3-yl)-1-(2-bromophenylsulfonyl)-1H-indole] | 14
13 | Cc1ccc(S(=O)(=O)n2cc(C3CCN(Cc4ccccc4)C3)c3ccccc32)cc1 (stereo not drawn) [Example 18, 3-(1-benzylpyrrolidin-3-yl)-1-(4-methylphenylsulfonyl)-1H-indole] | 8
14 | CN1CCC(c2cn(S(=O)(=O)c3cc(Cl)c(Cl)s3)c3ccccc23)C1 (stereo not drawn) [Example 12, 1-[(4,5-dichlorothien-2-yl)sulfonyl]-3-(1-methyl-pyrrolidin-3-yl)-1H-indole] | 4
15 | CN1CCC(c2cn(S(=O)(=O)c3ccc4ccccc4c3)c3ccccc23)C1 (stereo not drawn) [Example 8, 1-(naphth-2-ylsulfonyl)-3-(1-methylpyrrolidin-3-yl)-1H-indole] | 3
16 | O=S(=O)(c1ccc2ccccc2c1)n1cc(C2CCCNC2)c2ccccc21 (stereo not drawn) [Example 41, 1-(2-naphthylenesulfonyl)-3-piperidin-3-yl-1H-indole] | 8
17 | CN1CCC(c2cn(S(=O)(=O)c3ccc(Cl)cc3)c3ccccc23)C1 (stereo not drawn) [Example 6, 1-(4-chlorophenylsulfonyl)-3-(1-methylpyrrolidin-3-yl)-1H-indole] | 1
18 | O=S(=O)(c1cccc(Cl)c1)n1cc(C2CCCNC2)c2cccnc21 (stereo not drawn) [Example 48, 1-(3-chloro-benzenesulfonyl)-3-piperidin-3-yl-1H-pyrrolo[2,3-b]pyridine] | 6

Further compounds by falling Ki, results first:

Row | Ki [nM] | SMILES
19 | 15 | O=S(=O)(c1ccc(Cl)c(Cl)c1)n1cc(C2CCN(Cc3ccccc3)C2)c2ccccc21 (stereo not drawn) [Example 21, 3-(1-benzylpyrrolidin-3-yl)-1-(3,4-dichlorophenyl-sulfonyl)-1H-indole]
20 | 9 | O=S(=O)(c1ccc(Br)s1)n1cc(C2CCN(Cc3ccccc3)C2)c2ccccc21 (stereo not drawn) [Example 24, 3-(1-benzylpyrrolidin-3-yl)-1-[(5-bromothien-2-yl)sulfonyl]-1H-indole]
21 | 7 | O=S(=O)(c1ccc(F)c(F)c1)n1cc(C2CCCNC2)c2ccccc21 (stereo not drawn) [Example 35, 1-(3,4-difluoro-benzenesulfonyl)-3-piperidin-3-yl-1H-indole]
22 | 7 | O=S(=O)(c1ccc(Cl)s1)n1cc(C2CCCNC2)c2cccnc21 (stereo not drawn) [Example 47, 1-(5-chloro-thiophene-2-sulfonyl)-3-piperidin-3-yl-1H-pyrrolo[2,3-b]pyridine]
23 | 5 | CC(C)c1ccc(S(=O)(=O)n2cc(C3CCCNC3)c3ccccc32)cc1 (stereo not drawn) [Example 32, 1-(4-isopropyl-benzenesulfonyl)-3-piperidin-3-yl-1H-indole]
24 | 3 | O=S(=O)(c1ccc(Cl)s1)n1cc(C2CCCNC2)c2ccccc21 (stereo not drawn) [Example 33, 1-(5-chloro-thiophene-2-sulfonyl)-3-piperidin-3-yl-1H-indole]
25 | 2 | CN1CCC(c2cn(S(=O)(=O)c3ccccc3I)c3ccccc23)C1 (stereo not drawn) [Example 17, 1-(2-iodophenylsulfonyl)-3-(1-methylpyrrolidin-3-yl)-1H-indole]
26 | 2 | CN1CCC(c2cn(S(=O)(=O)c3ccc(F)cc3)c3ccccc23)C1 (stereo not drawn) [Example 4, 1-(4-fluorophenylsulfonyl)-3-(1-methyl-pyrrolidin-3-yl)-1H-indole]
27 | 1 | CN1CCC(c2cn(S(=O)(=O)c3ccc(I)cc3)c3ccccc23)C1 (stereo not drawn) [Example 16, 1-(4-iodophenylsulfonyl)-3-(1-methylpyrrolidin-3-yl)-1H-indole]
